# Data: PMC4552634, “A New Set of Chemical Starting Points with Plasmodium falciparum Transmission-Blocking Potential for Antimalarial Drug Discovery” (PLoS ONE, 2015)
# Where “and” joins values, the source holds several entries; their conditions need not be identical. Equal entries are not always repeated. Where two headings read alike, the source gives them in different places.
# What was measured:
# [1] = test system: P. falciparum stage V gametocytes; assay: Gametocytocidal ATP bioluminescence assay (single point 5 μM and 1 μM, dose-response); assay type: cell-based, Plasmodium falciparum; conditions: for Ratio IC50 HepG2/IC50 P. falciparum: IC50 HepG2 divided by IC50 P. falciparum gametocytes; for % Inhibition: 5 μM single concentration, 48 h, decrease of ATP level (S1 Table)
# Experimental: Purified stage IV-V gametocytes were obtained as previously described [10]. Single point ATP bioluminescence assay and dose–response of positive hits was determined in accordance with the previously published protocol [10].
# [2] = test system: HepG2 cells; assay: Cytotoxicity in HepG2 cells (intracellular ATP, ATPlite, 48 h); assay type: cell-based, human; conditions: HepG2 cells; IC50 per ratio column head; unit inferred
# [3] = test system: P. falciparum asexual stages; conditions: asexual stages; TCAMS data; read-out: IC50 asexual; cited from earlier work
# [4] = P. falciparum gametocytes, average, read-out: IC50 Pf Gametocytes average, IC50 (µM) average
# [5] = sexual stages (gametocytes), dose-response, read-out: IC50 sexual
SMILES,Ratio IC50 HepG2/IC50 P. falciparum [1],"IC50 [1, 4] [µM]",IC50 [2],IC50 [3] [nM],"IC50 [1, 5] [µM]",% Inhibition ([1]; P. falciparum gametocytes) [%]
Cc1ccc(C)c(NC(=O)CC2C(=O)N(c3ccccc3)C(=S)N2Cc2ccco2)c1 (stereo not drawn) [TCMDC-124000],>7.7,1.3,> 10000 nM,570,,
CCCCCCCn1c(=N)n(CC(O)c2ccc(Cl)c(Cl)c2)c2ccccc21 (stereo not drawn) [TCMDC-124065],3,2.02,6000 nM,782,,
CCCCOc1ccc(C(=O)C(CCC(CNC(C)(C)C)C(=O)c2ccc(OCCCC)cc2)CNC(C)(C)C)cc1 (stereo not drawn) [TCMDC-124120],10,0.3,3100 nM,1020,,
CCCCCOc1ccc(C(O)C(CCC(CN2CCCCCC2)C(O)c2ccc(OCCCCC)cc2)CN2CCCCCC2)cc1 (stereo not drawn) [TCMDC-124174],5.67,1.2,6800 nM,768,,
Oc1c(CN2CCC(Cc3ccccc3)CC2)cc(Cl)c2cccnc12 [TCMDC-124594],16,0.6,9600 nM,881,,
COc1ccc(C[C@H]2NC[C@H](O)[C@H]2OC(C)=O)cc1 [TCMDC-125504],1.1,0.17,190 nM,138,0.173,
COc1ccc(CCNCCCCCCNCCc2ccc(-c3ccccc3)cc2)cc1OC [TCMDC-131267],19,0.17,3250 nM,958,0.173,
COc1ccc(CCNCCCCCCNCCc2ccc(Cl)c3ccccc23)cc1OC [TCMDC-131270],25,0.13,3230 nM,580,0.127,
COc1ccc(CCNCCCCCCNCCc2ccc(Cl)cc2)c(Cl)c1OC [TCMDC-131272],24,0.26,6200 nM,825,0.257,
CCCCc1ccc(CCNCCCCCCNCCc2ccc(O)c(O)c2)cc1 [TCMDC-131281],15,0.54,8190 nM,1070,0.545,
COc1cccc(CCNCCCCCCNCCc2ccc(Cl)cc2)c1 [TCMDC-131284],12,0.53,6100 nM,1010,,
CCN=C1NC2=C(CC(C(C)(C)C)CC2)C2(CCC(C(C)(C)C)CC2)S1 (stereo not drawn) [TCMDC-131288],5,3,14300 nM,834,,
CCC(CSC1CCCCC1)N(C)CCN(C)C(CC)CSC1CCCCC1 (stereo not drawn) [TCMDC-131456],0.621,1.4,870 nM,314,,
C[C@H](Cc1ccc(CCc2ccc(C[C@@H](C)NC[C@H](O)c3cccc(Cl)c3)cc2)cc1)NC[C@H](O)c1cccc(Cl)c1 [TCMDC-131551],12,0.27,3100 nM,935,0.267,
C[C@H](Cc1ccc(Oc2ccc(C[C@@H](C)NC[C@H](O)c3cccc(Cl)c3)cc2)cc1)NC[C@H](O)c1cccc(Cl)c1 [TCMDC-131560],7,0.27,1910 nM,560,,
CCN(CC)/C(=N/C(=N)Nc1ccc(Cl)c(Cl)c1)NCCCCCCN/C(=N\C(=N)Nc1ccc(Cl)c(Cl)c1)N(CC)CC [TCMDC-131808],>7,3.44,> 25000 nM,761,3.44,
CCN(CC)/C(=N/C(=N)NCc1ccc(Cl)cc1Cl)NCCCCCCN/C(=N\C(=N)NCc1ccc(Cl)cc1Cl)N(CC)CC [TCMDC-131819],,0.3,,218,,
Nc1c2ccccc2nc2ccc(-c3ccccc3)cc12 [TCMDC-132030],7,0.49,3300 nM,140,0.485,

SMILES,Ratio IC50 HepG2/IC50 P. falciparum [1],"IC50 [1, 4] [µM]",IC50 [2],IC50 [3] [nM],"IC50 [1, 5] [µM]",% Inhibition ([1]; P. falciparum gametocytes) [%]
CCc1c(CCNCCCCCCNCCc2ccc(Br)cc2)ccc(OC)c1OC [TCMDC-132045],15,0.22,3200 nM,232,0.215,
CCc1c(CCNCCCCCCNCCc2ccc(OC)c(OC)c2C)ccc(OC)c1OC [TCMDC-132051],10,0.77,7750 nM,1570,,
CCc1c(CCNCCCCCCNC(C)Cc2ccc3c(c2CC)OCO3)ccc(OC)c1OC (stereo not drawn) [TCMDC-132052],10,0.33,3100 nM,870,0.325,
CCc1c(CCNCCCCCCNC(C)(C)Cc2ccc3c(c2CC)OCO3)ccc(OC)c1OC [TCMDC-132055],16,0.27,4370 nM,934,0.266,
CCc1c(CCNCCc2cccc(CCNCCc3ccc(OC)c(OC)c3CC)c2)ccc(OC)c1OC [TCMDC-132056],7.47,0.55,4110 nM,361,,
CCc1c(CCNCCCC(C)CCNCCc2ccc(OC)c(OC)c2CC)ccc(OC)c1OC (stereo not drawn) [TCMDC-132065],13,0.45,6000 nM,1110,0.453,
Nc1c(Cl)cc(C(O)CNCCCCCOCCCc2ccc(O)c3ncccc23)cc1Cl.O=C(O)/C=C/C(=O)O (stereo not drawn) [TCMDC-132088],10,0.45,4510 nM,992,0.455,
COc1cccc(CCc2c(CCNCCCCCCNCCc3ccccc3)ccc(OC)c2OC)c1 [TCMDC-132105],44,0.18,7700 nM,721,0.177,
O=S(=O)(NCCN1CCCC1)c1cccc(-c2ccc(CNC3Cc4ccccc4C3)cc2)c1 [TCMDC-132241],3.72,2.15,8000 nM,660,,
O=S(=O)(NCCN1CCCC1)c1cccc(-c2ccc(CNCc3ccc(F)cc3)cc2)c1 [TCMDC-132289],2.75,2.69,7400 nM,234,,
CN1CCN(c2nsc3ccc(-c4ccc(NC(=O)Nc5cc(C(F)(F)F)ccc5F)cc4)cc23)CC1 [TCMDC-133435],0.851,7.52,6400 nM,245,,
O=C(Nc1ccc(Cl)c(Cl)c1)Nc1ccccc1N1CCNCC1 [TCMDC-133727],1.51,7.42,11200 nM,709,,
CN1CCCc2cc(NC(=O)C=Cc3ccc(-c4ccc(F)cc4F)o3)ccc2C1 [TCMDC-134051],<1,> 10,13400 nM,783,,
CCCCOc1ccc(CNCCCCCCNCc2ccc(OCCCC)c3ccccc23)c2ccccc12 [TCMDC-137281],,,3040 nM and 2800 nM,1130,,
CCCCCOc1ccc(C(=NC)N(CCCCC)CCCCC)c2ccccc12 [TCMDC-137703],7,0.89,6300 nM,,0.885,
C=CC(C)C1OC(=O)c2cc(OC)cc(OC)c21 (stereo not drawn) [TCMDC-138676],2,0.4,800 nM,,,
CC(C)NC(C)(C)CN(Cc1ccc(-c2ccc(C(F)(F)F)cc2)cc1)C(=O)Cn1c(CCc2cccc(F)c2F)nc(=O)c2ccccc21 [TCMDC-141084],,,,,,72
CCCCCCNC(=O)C1Cc2c([nH]c3ccccc23)C2(CCN(CCc3ccccc3)CC2)N1 (stereo not drawn) [TCMDC-141085],,,,,,-58
